From patent US8952034B2, “Fused heterocyclic compounds as ion channel modulators” (Gilead Sciences, Inc., priority 2009, dated 2015)

The molecules below were run against wild-type human cardiac sodium channel, hNav1.5 (Homo sapiens, UniProt Q14524) (assay: Late INa screening assay (automated whole cell patch clamp, PatchXpress)). Details: compound at 1 μM; HEK293 cells expressing hNav1.5; late INa generated with 10 μM Tefluthrin (or 50 nM ATX II); read-out: LateINa_1 uM (percent block of late INa).
Chain of wild-type human cardiac sodium channel, hNav1.5 (Q14524 whole entry): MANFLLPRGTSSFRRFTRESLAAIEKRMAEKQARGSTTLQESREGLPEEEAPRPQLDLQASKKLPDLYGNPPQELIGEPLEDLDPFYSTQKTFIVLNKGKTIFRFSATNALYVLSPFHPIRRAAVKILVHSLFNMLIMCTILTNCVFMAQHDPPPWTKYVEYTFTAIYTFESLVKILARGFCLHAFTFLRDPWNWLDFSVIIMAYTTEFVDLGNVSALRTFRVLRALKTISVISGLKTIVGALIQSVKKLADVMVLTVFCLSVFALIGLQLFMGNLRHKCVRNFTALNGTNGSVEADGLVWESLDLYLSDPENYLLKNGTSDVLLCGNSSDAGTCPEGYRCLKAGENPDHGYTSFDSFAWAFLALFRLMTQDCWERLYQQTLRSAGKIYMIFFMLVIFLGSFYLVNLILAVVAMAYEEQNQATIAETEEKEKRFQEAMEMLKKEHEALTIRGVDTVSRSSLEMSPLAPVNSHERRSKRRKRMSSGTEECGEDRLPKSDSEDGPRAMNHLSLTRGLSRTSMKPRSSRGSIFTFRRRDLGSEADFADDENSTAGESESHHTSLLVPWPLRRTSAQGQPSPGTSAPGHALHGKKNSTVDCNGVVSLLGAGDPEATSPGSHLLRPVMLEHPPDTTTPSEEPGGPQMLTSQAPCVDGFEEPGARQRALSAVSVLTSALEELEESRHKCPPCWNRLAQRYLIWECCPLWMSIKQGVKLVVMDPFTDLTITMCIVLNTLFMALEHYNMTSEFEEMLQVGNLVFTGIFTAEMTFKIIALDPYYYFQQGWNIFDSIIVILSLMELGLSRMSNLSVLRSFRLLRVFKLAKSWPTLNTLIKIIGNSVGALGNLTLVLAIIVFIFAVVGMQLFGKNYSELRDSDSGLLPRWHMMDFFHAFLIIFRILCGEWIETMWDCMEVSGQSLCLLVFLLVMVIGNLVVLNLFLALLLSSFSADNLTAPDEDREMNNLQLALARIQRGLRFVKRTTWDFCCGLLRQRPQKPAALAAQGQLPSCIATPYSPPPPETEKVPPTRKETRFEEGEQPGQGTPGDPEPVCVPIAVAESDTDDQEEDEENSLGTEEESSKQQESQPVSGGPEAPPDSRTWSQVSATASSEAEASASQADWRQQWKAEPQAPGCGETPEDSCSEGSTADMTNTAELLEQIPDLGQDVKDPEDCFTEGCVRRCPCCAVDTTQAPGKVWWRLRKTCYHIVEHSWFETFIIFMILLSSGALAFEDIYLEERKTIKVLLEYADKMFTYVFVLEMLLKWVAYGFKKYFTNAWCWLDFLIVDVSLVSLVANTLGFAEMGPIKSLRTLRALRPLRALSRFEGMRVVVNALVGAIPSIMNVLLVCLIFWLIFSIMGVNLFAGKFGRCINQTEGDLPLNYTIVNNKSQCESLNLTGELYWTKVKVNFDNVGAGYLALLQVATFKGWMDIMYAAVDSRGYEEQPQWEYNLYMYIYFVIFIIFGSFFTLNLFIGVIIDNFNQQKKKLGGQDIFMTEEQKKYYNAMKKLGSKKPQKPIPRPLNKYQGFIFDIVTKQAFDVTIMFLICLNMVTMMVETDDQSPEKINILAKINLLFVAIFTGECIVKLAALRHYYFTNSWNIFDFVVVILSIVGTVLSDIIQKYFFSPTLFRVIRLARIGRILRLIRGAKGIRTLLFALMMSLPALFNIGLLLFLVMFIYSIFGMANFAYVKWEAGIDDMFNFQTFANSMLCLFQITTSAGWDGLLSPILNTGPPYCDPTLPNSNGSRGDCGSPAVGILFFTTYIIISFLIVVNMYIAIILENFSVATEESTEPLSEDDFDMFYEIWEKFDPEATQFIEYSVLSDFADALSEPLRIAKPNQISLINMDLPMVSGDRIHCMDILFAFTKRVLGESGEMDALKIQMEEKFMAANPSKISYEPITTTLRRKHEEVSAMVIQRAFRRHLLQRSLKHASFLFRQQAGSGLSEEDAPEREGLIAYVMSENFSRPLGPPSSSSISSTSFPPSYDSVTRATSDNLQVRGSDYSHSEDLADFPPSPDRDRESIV
Format: cell-based
In short: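 Late sodium current through wild-type human hNav1.5 stably expressed in HEK293 cells (no beta subunits) was recorded by automated whole-cell patch clamp on a PatchXpress 7000A at 24-27° C. Late INa was induced with 10 μM Tefluthrin or 50 nM ATX II. Cells were stepped from −120 mV to −20 mV for 250 ms at 0.1 Hz, and percent block was normalized to current in Na-free extracellular solution.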
For `FC(F)(F)c1ccc(-c2ccc3nnc(C(F)(F)F)n3c2)c(C(F)(F)F)c1` [BHN-199, 6-[2,4-bis(trifluoromethyl)phenyl]-3-(trifluoromethyl)[1,2,4]triazolo[4,3-a]pyridine], the inhibition at 1 µM was 20.6%.
`FC(F)(F)c1nnc2ccc(-c3ccc(Nc4ccc(Cl)cc4)cc3)cn12` [BHN-283, 4-chloro-N-{4-[3-(trifluoromethyl)[1,2,4]triazolo[4,3-a]pyridin-6-yl]phenyl}aniline] gave an inhibition at 1 µM of 27.2%.
`FC(F)(F)Oc1ccc(-c2ccc3nnc(C(F)(F)CCl)n3c2)cc1` [BHN-160, 3-(2-chloro-1,1-difluoroethyl)-6-[4-(trifluoromethoxy)phenyl][1,2,4]triazolo[4,3-a]pyridine] was tested, and the inhibition at 1 µM was 62%.
Molecule `COCC(F)(F)c1nnc2ccc(C#Cc3ccc(C(F)(F)F)cc3)cn12` [BHN-234, 3-(1,1-difluoro-2-methoxyethyl)-6-{[4-(trifluoromethyl)phenyl]ethynyl}[1,2,4]triazolo[4,3-a]pyridine] has an inhibition at 1 µM of 57.8%.
`FC(F)(F)Oc1ccc(-c2ccc3nnc(C(F)(F)OCc4cn(-c5ccccc5)nc4C(F)(F)F)n3c2)cc1` [BHN-314, 3-(difluoro{[1-phenyl-3-(trifluoromethyl)-1H-pyrazol-4-yl]methoxy}methyl)-6-[4-(trifluoromethoxy)phenyl][1,2,4]triazolo[4,3-a]pyridine] showed an inhibition at 1 µM of 24.2%.
`OCC(F)(F)c1nnc2ccc(C#Cc3ccc(C(F)(F)F)cc3)cn12` [BHN-198, 2,2-difluoro-2-(6-{[4-(trifluoromethyl)phenyl]ethynyl}[1,2,4]triazolo[4,3-a]pyridin-3-yl)ethanol] showed an inhibition at 1 µM of 17.4%.
Molecule `O=[N+]([O-])c1cc(F)ccc1Oc1ccc(-c2ccc3nnc(C(F)(F)F)n3c2)cc1` [BHN-110, 6-[4-(4-fluoro-2-nitrophenoxy)phenyl]-3-(trifluoromethyl)[1,2,4]triazolo[4,3-a]pyridine] has an inhibition at 1 µM of 18.2%.
For `FC(F)(F)Oc1ccc(-c2ccc3nnc(C(F)(F)OCc4ccnc(N5CCCCC5)c4)n3c2)cc1` [BHN-320, 3-(difluoro{[2-(piperidin-1-yl)pyridin-4-yl]methoxy}methyl)-6-[4-(trifluoromethoxy)phenyl][1,2,4]triazolo[4,3-a]pyridine], the inhibition at 1 µM was 76.3%.
In the case of `FC(F)(F)c1ccc(-c2ccc3nnc(C(F)(F)OCC4CC4)n3c2)cn1` [BHN-275, 3-[(cyclopropylmethoxy)(difluoro)methyl]-6-[6-(trifluoromethyl)pyridin-3-yl][1,2,4]triazolo[4,3-a]pyridine], the inhibition at 1 µM was 28.6%.
In the case of `Cc1ccc(COCc2nnc3ccc(-c4ccc(OC(F)(F)F)cc4)cn23)c(C)c1` [BHN-251, 3-{[(2,4-dimethylbenzyl)oxy]methyl}-6-[4-(trifluoromethoxy)phenyl][1,2,4]triazolo[4,3-a]pyridine], the inhibition at 1 µM was 75.8%.
`FC(F)(F)c1ncc2ccc(-c3ncco3)cn12` [BHN-183, 6-(1,3-oxazol-2-yl)-3-(trifluoromethyl)imidazo[1,5-a]pyridine] gave an inhibition at 1 µM of 19.5%.
For `FC(F)(F)Oc1ccc(-c2ccc3nnc(C(F)(F)F)n3c2)cc1-c1nnco1` [BHN-153, 6-[3-(1,3,4-oxadiazol-2-yl)-4-(trifluoromethoxy)phenyl]-3-(trifluoromethyl)[1,2,4]triazolo[4,3-a]pyridine], the inhibition at 1 µM was 17.2%.
Molecule `c1ccc(Oc2ccc(-c3ccc4nnc(C5CC5)n4n3)cc2)cc1` [BHN-39, 3-cyclopropyl-6-(4-phenoxyphenyl)[1,2,4]triazolo[4,3-b]pyridazine] has an inhibition at 1 µM of 44.4%.
For `FC(F)(F)Oc1ccc(-c2ccc3nnc(C(F)(F)OCc4ccccc4-c4cccnc4)n3c2)cc1` [BHN-327, 3-(difluoro{[2-(pyridin-3-yl)benzyl]oxy}methyl)-6-[4-(trifluoromethoxy)phenyl][1,2,4]triazolo[4,3-a]pyridine], the inhibition at 1 µM was 54.2%.
In the case of `FC(F)(F)Oc1ccc(-c2ccc3nnc(C(F)(F)F)n3c2)c(-c2cccnc2)c1` [BHN-132, 6-[2-(pyridin-3-yl)-4-(trifluoromethoxy)phenyl]-3-(trifluoromethyl)[1,2,4]triazolo[4,3-a]pyridine], the inhibition at 1 µM was 29.4%.
`Cn1nc(COC(F)(F)c2nnc3ccc(-c4ccc(OC(F)(F)F)cc4)cn23)cc1-c1ccccc1` [BHN-224, 3-{difluoro[(1-methyl-5-phenyl-1H-pyrazol-3-yl)methoxy]methyl}-6-[4-(trifluoromethoxy)phenyl][1,2,4]triazolo[4,3-a]pyridine] was tested, and the inhibition at 1 µM was 24.2%.
Work on `FC(F)(F)c1nnc2ccc(-c3ccc(Oc4cccnc4)cc3)cn12` [BHN-100, 6-[4-(pyridin-3-yloxy)phenyl]-3-(trifluoromethyl)[1,2,4]triazolo[4,3-a]pyridine] yielded an inhibition at 1 µM of 27.6%.
In the case of `FC(F)(F)Oc1ccc(-c2ccc3nnc(C(F)(F)Cl)n3c2)cc1` [BHN-308, 3-[chloro(difluoro)methyl]-6-[4-(trifluoromethoxy)phenyl][1,2,4]triazolo[4,3-a]pyridine], the inhibition at 1 µM was 71.2%.
Work on `COCC(F)(F)c1nnc2ccc(-c3ccc(OC(F)(F)F)c(C)c3)cn12` [BHN-188, 3-(1,1-difluoro-2-methoxyethyl)-6-[3-methyl-4-(trifluoromethoxy)phenyl][1,2,4]triazolo[4,3-a]pyridine] yielded an inhibition at 1 µM of 41.3%.
Work on `FC(F)(F)c1nnc2ccc(-c3ccc(Oc4ccncc4)cc3)cn12` [BHN-113, 6-[4-(pyridin-4-yloxy)phenyl]-3-(trifluoromethyl)[1,2,4]triazolo[4,3-a]pyridine] yielded an inhibition at 1 µM of 20.1%.
Work on `FC(F)(F)Oc1ccc(-c2ccc3nnc(C(F)(F)OCC4CC4(F)F)n3c2)cc1` (centres unmarked) [BHN-294, 3-{[(2,2-difluorocyclopropyl)methoxy](difluoro)methyl}-6-[4-(trifluoromethoxy)phenyl][1,2,4]triazolo[4,3-a]pyridine] yielded an inhibition at 1 µM of 77.6%.
`Cc1cc(COC(F)(F)c2nnc3ccc(-c4ccc(OC(F)(F)F)cc4)cn23)nn1-c1ccc(Cl)cc1` [BHN-302, 3-[{[1-(4-chlorophenyl)-5-methyl-1H-pyrazol-3-yl]methoxy}(difluoro)methyl]-6-[4-(trifluoromethoxy)phenyl][1,2,4]triazolo[4,3-a]pyridine] was tested, and the inhibition at 1 µM was 52.8%.
With `O=[N+]([O-])c1ccc(-c2ccc3nnc(C(F)(F)F)n3c2)c(Cl)c1` [BHN-292, 6-(2-chloro-4-nitrophenyl)-3-(trifluoromethyl)[1,2,4]triazolo[4,3-a]pyridine] the inhibition at 1 µM was 26%.
Work on `FC(F)(F)c1nnc2ccc(-c3cccc(Oc4ccccc4)c3)cn12` [BHN-9, 6-(3-phenoxyphenyl)-3-(trifluoromethyl)[1,2,4]triazolo[4,3-a]pyridine] yielded an inhibition at 1 µM of 29.6%.
`CCOC(=O)c1ccc(-c2nnc3ccc(-c4ccc(OC(F)(F)F)cc4)cn23)cc1` [BHN-86, ethyl 4-{6-[4-(trifluoromethoxy)phenyl][1,2,4]triazolo[4,3-a]pyridin-3-yl}benzoate] gave an inhibition at 1 µM of 82.7%.
`FC(F)(F)c1nnc2ccc(C#Cc3ccccc3)cn12` [BHN-163, 6-(phenylethynyl)-3-(trifluoromethyl)[1,2,4]triazolo[4,3-a]pyridine] was tested, and the inhibition at 1 µM was 57.3%.
With `FC(F)(F)COc1ccc(-c2ccc3nnc(C(F)(F)F)n3c2)cn1` [BHN-92, 6-[6-(2,2,2-trifluoroethoxy)pyridin-3-yl]-3-(trifluoromethyl)[1,2,4]triazolo[4,3-a]pyridine] the inhibition at 1 µM was 63.5%.
In the case of `FC(F)(F)Oc1ccc(-c2ccc3nnc(C(F)(F)OCc4ccccc4-n4cncn4)n3c2)cc1` [BHN-311, 3-(difluoro{[2-(1H-1,2,4-triazol-1-yl)benzyl]oxy}methyl)-6-[4-(trifluoromethoxy)phenyl][1,2,4]triazolo[4,3-a]pyridine], the inhibition at 1 µM was 47.3%.
Work on `FC(F)(F)c1nnc2ccc(-c3ccc(-c4ccccc4)cc3)cn12` [BHN-57, 6-(biphenyl-4-yl)-3-(trifluoromethyl)[1,2,4]triazolo[4,3-a]pyridine] yielded an inhibition at 1 µM of 45.8%.
For `CC(OC(F)(F)c1nnc2ccc(-c3ccc(OC(F)(F)F)cc3)cn12)c1ccc(Cl)cc1Cl` (centres unmarked) [BHN-247, 3-{[1-(2,4-dichlorophenyl)ethoxy](difluoro)methyl}-6-[4-(trifluoromethoxy)phenyl][1,2,4]triazolo[4,3-a]pyridine], the inhibition at 1 µM was 74.1%.
`Fc1cc(-c2ccc3nnc(C(F)(F)F)n3c2)cc(F)c1Oc1ccccc1` [BHN-109, 6-(3,5-difluoro-4-phenoxyphenyl)-3-(trifluoromethyl)[1,2,4]triazolo[4,3-a]pyridine] showed an inhibition at 1 µM of 61.8%.

Same assay, conditions: compound at 10 μM; HEK293 cells expressing hNav1.5; late INa generated with 10 μM Tefluthrin (or 50 nM ATX II); read-out: LateINa_10 uM (percent block of late INa)
Molecule `c1ccc(Oc2ccc(-c3ccc4nncn4n3)cc2)cc1` [BHN-22, 6-(4-phenoxyphenyl)[1,2,4]triazolo[4,3-b]pyridazine] has an inhibition at 10 µM of 59%.
Molecule `CC(C)(O)c1ccc(-c2ccc3nnc(C(F)(F)F)n3c2)cc1` [BHN-48, 2-{4-[3-(trifluoromethyl)[1,2,4]triazolo[4,3-a]pyridin-6-yl]phenyl}propan-2-ol] has an inhibition at 10 µM of 18.9%.
`c1ccc(Oc2ccc(-c3ccc4nnc(C5CC5)n4n3)cc2)cc1` [BHN-39, 3-cyclopropyl-6-(4-phenoxyphenyl)[1,2,4]triazolo[4,3-b]pyridazine] showed an inhibition at 10 µM of 74.3%.
With `Cc1cc2nnc(C(F)(F)F)n2cc1-c1cccc(OC(F)(F)F)c1` [BHN-17, 7-methyl-6-[3-(trifluoromethoxy)phenyl]-3-(trifluoromethyl)[1,2,4]triazolo[4,3-a]pyridine] the inhibition at 10 µM was 25.3%.
`FC(F)(F)c1nnc2ccc(-c3cccc(Oc4ccccc4)c3)cn12` [BHN-9, 6-(3-phenoxyphenyl)-3-(trifluoromethyl)[1,2,4]triazolo[4,3-a]pyridine] gave an inhibition at 10 µM of 75.7%.
Molecule `COC(=O)/C=C/c1nc(C(F)(F)F)n2cc(-c3ccc(OC(F)(F)F)cc3)ccc12` [BHN-58, methyl (2E)-3-{6-[4-(trifluoromethoxy)phenyl]-3-(trifluoromethyl)imidazo[1,5-a]pyridin-1-yl}prop-2-enoate] has an inhibition at 10 µM of 27.6%.
`CCOC(=O)c1ccc(-c2nnc3ccc(-c4ccc(OC(F)(F)F)cc4)cn23)cc1` [BHN-86, ethyl 4-{6-[4-(trifluoromethoxy)phenyl][1,2,4]triazolo[4,3-a]pyridin-3-yl}benzoate] gave an inhibition at 10 µM of 86.9%.
In the case of `FC(F)(F)COc1ccc(-c2ccc3nnc(C(F)(F)F)n3c2)cn1` [BHN-92, 6-[6-(2,2,2-trifluoroethoxy)pyridin-3-yl]-3-(trifluoromethyl)[1,2,4]triazolo[4,3-a]pyridine], the inhibition at 10 µM was 76.3%.
With `Fc1cc(-c2ccc3nnc(C(F)(F)F)n3c2)ccc1Cl` [BHN-14, 6-(4-chloro-3-fluorophenyl)-3-(trifluoromethyl)[1,2,4]triazolo[4,3-a]pyridine] the inhibition at 10 µM was 28.3%.
For `FC(F)(F)c1nnc2ccc(-c3ccc(-c4ccccc4)cc3)cn12` [BHN-57, 6-(biphenyl-4-yl)-3-(trifluoromethyl)[1,2,4]triazolo[4,3-a]pyridine], the inhibition at 10 µM was 39.5%.
